The target of the assay is T1, purified human Factor XIa (Homo sapiens, UniProt P03951).
T1 construct: purchased Haematologic Technologies
T1 sequence (P03951 388-625 limits assumed): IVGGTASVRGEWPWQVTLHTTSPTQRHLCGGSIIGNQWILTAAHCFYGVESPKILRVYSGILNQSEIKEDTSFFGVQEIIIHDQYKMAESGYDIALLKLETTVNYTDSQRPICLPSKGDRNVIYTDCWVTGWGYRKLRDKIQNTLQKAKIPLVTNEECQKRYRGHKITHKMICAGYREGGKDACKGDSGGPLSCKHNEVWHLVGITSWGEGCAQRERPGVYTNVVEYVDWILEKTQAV
T1 sequence (P03951 19-387 partner limits assumed): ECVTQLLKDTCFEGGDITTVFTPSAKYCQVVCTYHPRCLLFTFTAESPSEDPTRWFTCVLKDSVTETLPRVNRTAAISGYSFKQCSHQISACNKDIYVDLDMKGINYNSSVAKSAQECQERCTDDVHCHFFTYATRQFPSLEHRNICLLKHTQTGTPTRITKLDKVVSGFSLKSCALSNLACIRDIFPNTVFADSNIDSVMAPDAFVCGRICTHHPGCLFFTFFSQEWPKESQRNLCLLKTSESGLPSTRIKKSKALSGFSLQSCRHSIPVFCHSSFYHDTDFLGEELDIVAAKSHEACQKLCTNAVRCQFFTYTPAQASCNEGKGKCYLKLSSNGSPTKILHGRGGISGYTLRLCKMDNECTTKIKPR
Nature of the assay: Factor XIa enzyme inhibition assay (chromogenic substrate S-2366), Ki. Type of assay: biochemical. To be noted: substrate S-2366, pH 7.4. As to the method: The effectiveness of compounds of the present invention as inhibitors of the coagulation Factors XIa, VIIa, IXa, Xa, XIIa, plasma kallikrein, thrombin, chemytrypsin or trypsin can be determined using a relevant purified serine protease, respectively, and an appropriate synthetic substrate. The rate of hydrolysis of the chromogenic or fluorogenic substrate by the relevant serine protease was measured both in the absence and presence of compounds of the present invention. […] A decrease in the rate of absorbance or fluorescence change in the presence of inhibitor is indicative of enzyme inhibition. Such methods are known to one skilled in the art. The results of this assay are expressed as the inhibitory constant, Ki.
Factor XIa determinations were made in 50 mM HEPES buffer at pH 7.4 containing 145 mM NaCl, 5 mM KCl, and 0.1% PEG 8000 (polyethylene glycol; JT Baker or Fisher Scientific). Determinations were made using purified human Factor XIa at a final concentration of […] (Haematologic Technologies) and the synthetic substrate S-2366 (pyroGlu-Pro-Arg-pNA; CHROMOGENIX® or AnaSpec) at a concentration of 0.0002-0.001 M.
Values of Ki were determined by allowing the protease to react with the substrate in the presence of the inhibitor. Reactions were allowed to go for periods of 20-180 minutes (depending on the protease) and the velocities (rate of absorbance or fluorescence change versus time) were measured. The following relationships were used to calculate Ki values: (Vmax*S)/(Km+S) (vo−vs)/vs=I/(Ki*(1+S/Km)) for a competitive inhibitor with one binding site; or vs/vo=A+(B−A)/(1+(IC50/(I)^n)); and Ki=IC50/(1+S/Km) for a competitive inhibitor where: […]
Turning to `CC(C)c1nnc2n1CCN(C(=O)[C@H](Cc1ccccc1)n1cnc(-c3cc(Cl)ccc3-n3cc(Cl)nn3)cc1=O)C2` [Example 67, (S)-6-(5-chloro-2-(4-chloro-1H-1,2,3-triazol-1-yl)phenyl)-3-(1-(3-isopropyl-5,6-dihydro-[1,2,4]triazolo[4,3-a]pyrazin-7(8H)-yl)-1-oxo-3-phenylpropan-2-yl)pyrimidin-4(3H)-one], the Ki (in general, the equilibrium dissociation constant of an inhibitor or competing ligand from its target) worked out at 7.37 µM.
The result for `CN1CCN(C(=O)[C@H](Cc2ccccc2)n2cnc(-c3cc(Cl)ccc3-n3cc(Cl)nn3)cc2=O)CC1` [Example 68, (S)-6-(5-chloro-2-(4-chloro-1H-1,2,3-triazol-1-yl)phenyl)-3-(1-(4-methylpiperazin-1-yl)-1-oxo-3-phenylpropan-2-yl)pyrimidin-4(3H)-one] reads 4.41 µM.
In turn, `O=C(NCCN1CCCC1)[C@H](Cc1ccccc1)n1cnc(-c2cc(Cl)ccc2-n2cc(Cl)nn2)cc1=O` [Example 69, (S)-2-(4-(5-chloro-2-(4-chloro-1H-1,2,3-triazol-1-yl)phenyl)-6-oxopyrimidin-1(6H)-yl)-3-phenyl-N-(2-(pyrrolidin-1-yl)ethyl)propanamide] returned a Ki of 7.62 µM.
In turn, `O=C(NCc1ccccn1)[C@H](Cc1ccccc1)n1cnc(-c2cc(Cl)ccc2-n2cc(Cl)nn2)cc1=O` [Example 70, (S)-2-(4-(5-chloro-2-(4-chloro-1H-1,2,3-triazol-1-yl)phenyl)-6-oxopyrimidin-1(6H)-yl)-3-phenyl-N-(pyridin-2-ylmethyl)propanamide] showed a Ki of 0.931 µM.
`O=C([C@H](Cc1ccccc1)n1cnc(-c2cc(Cl)ccc2-n2cc(Cl)nn2)cc1=O)N1CCc2ccccc2C1` [Example 71, (S)-6-(5-chloro-2-(4-chloro-1H-1,2,3-triazol-1-yl)phenyl)-3-(1-(3,4-dihydroisoquinolin-2(1H)-yl)-1-oxo-3-phenylpropan-2-yl)pyrimidin-4(3H)-one] had a Ki of 0.79 µM.
`O=C([C@H](Cc1ccccc1)n1cnc(-c2cc(Cl)ccc2-n2cc(Cl)nn2)cc1=O)N1CCC(Cc2ccccc2)CC1` [Example 72, (S)-3-(1-(4-benzylpiperidin-1-yl)-1-oxo-3-phenylpropan-2-yl)-6-(5-chloro-2-(4-chloro-1H-1,2,3-triazol-1-yl)phenyl)pyrimidin-4(3H)-one] gave a Ki of 13.3 µM.
Turning to `O=C([C@H](Cc1ccccc1)n1cnc(-c2cc(Cl)ccc2-n2cc(Cl)nn2)cc1=O)N1CCC(c2ccccc2)CC1` [Example 73, (S)-6-(5-chloro-2-(4-chloro-1H-1,2,3-triazol-1-yl)phenyl)-3-(1-oxo-3-phenyl-1-(4-phenylpiperidin-1-yl)propan-2-yl)pyrimidin-4(3H)-one], the inhibition constant Ki was 4.44 µM.
Compound `O=C(NCc1ccncc1)[C@H](Cc1ccccc1)n1cnc(-c2cc(Cl)ccc2-n2cc(Cl)nn2)cc1=O` [Example 74, (S)-2-(4-(5-chloro-2-(4-chloro-1H-1,2,3-triazol-1-yl)phenyl)-6-oxopyrimidin-1(6H)-yl)-3-phenyl-N-(pyridin-4-ylmethyl)propanamide] gave a Ki of 0.552 µM.
Next, `COc1ccc(CNC(=O)[C@H](Cc2ccccc2)n2cnc(-c3cc(Cl)ccc3-n3cc(Cl)nn3)cc2=O)cc1` [Example 75, (S)-2-(4-(5-chloro-2-(4-chloro-1H-1,2,3-triazol-1-yl)phenyl)-6-oxopyrimidin-1(6H)-yl)-N-(4-methoxybenzyl)-3-phenylpropanamide]: 1.22 µM.
Compound `O=C(NCc1ccc(Cl)cc1)[C@H](Cc1ccccc1)n1cnc(-c2cc(Cl)ccc2-n2cc(Cl)nn2)cc1=O` [Example 76, (S)-2-(4-(5-chloro-2-(4-chloro-1H-1,2,3-triazol-1-yl)phenyl)-6-oxopyrimidin-1(6H)-yl)-N-(4-chlorobenzyl)-3-phenylpropanamide] came in with a Ki of 1.22 µM.
Compound `O=C(NCc1cccnc1)[C@H](Cc1ccccc1)n1cnc(-c2cc(Cl)ccc2-n2cc(Cl)nn2)cc1=O` [Example 77, (S)-2-(4-(5-chloro-2-(4-chloro-1H-1,2,3-triazol-1-yl)phenyl)-6-oxopyrimidin-1(6H)-yl)-3-phenyl-N-(pyridin-3-ylmethyl)propanamide] came in with a Ki of 1.45 µM.
Regarding `O=C([C@H](Cc1ccccc1)n1cnc(-c2cc(Cl)ccc2-n2cc(Cl)nn2)cc1=O)N1CCOCC1` [Example 78, (S)-6-(5-chloro-2-(4-chloro-1H-1,2,3-triazol-1-yl)phenyl)-3-(1-morpholino-1-oxo-3-phenylpropan-2-yl)pyrimidin-4(3H)-one], the inhibition constant (Ki) amounted to 4.45 µM.
Regarding `Cn1ncc2cc(CNC(=O)[C@H](Cc3ccccc3)n3cnc(-c4cc(Cl)ccc4-n4cc(Cl)nn4)cc3=O)ccc21` [Example 79, (S)-2-(4-(5-chloro-2-(4-chloro-1H-1,2,3-triazol-1-yl)phenyl)-6-oxopyrimidin-1(6H)-yl)-N-((1-methyl-1H-indazol-5-yl)methyl)-3-phenylpropanamide], the affinity corresponds to a Ki of 0.63 µM.
Compound `CC(C)c1cc(CNC(=O)[C@H](Cc2ccccc2)n2cnc(-c3cc(Cl)ccc3-n3cc(Cl)nn3)cc2=O)on1` [Example 80, (S)-2-(4-(5-chloro-2-(4-chloro-1H-1,2,3-triazol-1-yl)phenyl)-6-oxopyrimidin-1(6H)-yl)-N-((3-isopropylisoxazol-5-yl)methyl)-3-phenylpropanamide] showed an inhibitory constant (Ki) of 3.78 µM.
The compound `O=C([C@H](Cc1ccccc1)n1cnc(-c2cc(Cl)ccc2-n2cc(Cl)nn2)cc1=O)N1CCC(O)CC1` [Example 81, (S)-6-(5-chloro-2-(4-chloro-1H-1,2,3-triazol-1-yl)phenyl)-3-(1-(4-hydroxypiperidin-1-yl)-1-oxo-3-phenylpropan-2-yl)pyrimidin-4(3H)-one] displayed a Ki of 4.41 µM.
Next, `O=C(NCCc1ncn[nH]1)[C@H](Cc1ccccc1)n1cnc(-c2cc(Cl)ccc2-n2cc(Cl)nn2)cc1=O` [Example 82, (S)-N-(2-(1H-1,2,4-triazol-5-yl)ethyl)-2-(4-(5-chloro-2-(4-chloro-1H-1,2,3-triazol-1-yl)phenyl)-6-oxopyrimidin-1(6H)-yl)-3-phenylpropanamide]: 7.37 µM.
Compound `Cn1ccnc1N1CCN(C(=O)[C@H](Cc2ccccc2)n2cnc(-c3cc(Cl)ccc3-n3cc(Cl)nn3)cc2=O)CC1` [Example 83, (S)-6-(5-chloro-2-(4-chloro-1H-1,2,3-triazol-1-yl)phenyl)-3-(1-(4-(1-methyl-1H-imidazol-2-yl)piperazin-1-yl)-1-oxo-3-phenylpropan-2-yl)pyrimidin-4(3H)-one] came in with an inhibition constant (Ki) of 3.11 µM.
Compound `NS(=O)(=O)C1CCN(C(=O)[C@H](Cc2ccccc2)n2cnc(-c3cc(Cl)ccc3-n3cc(Cl)nn3)cc2=O)CC1` [Example 84, (S)-1-(2-(4-(5-chloro-2-(4-chloro-1H-1,2,3-triazol-1-yl)phenyl)-6-oxopyrimidin-1(6H)-yl)-3-phenylpropanoyl)piperidine-4-sulfonamide] returned a Ki of 2.52 µM.
In the case of `COCCNC(=O)[C@H](Cc1ccccc1)n1cnc(-c2cc(Cl)ccc2-n2cc(Cl)nn2)cc1=O` [Example 85, (S)-2-(4-(5-chloro-2-(4-chloro-1H-1,2,3-triazol-1-yl)phenyl)-6-oxopyrimidin-1(6H)-yl)-N-(2-methoxyethyl)-3-phenylpropanamide], the Ki was determined as 1.73 µM.
In turn, `O=C(NCCO)[C@H](Cc1ccccc1)n1cnc(-c2cc(Cl)ccc2-n2cc(Cl)nn2)cc1=O` [Example 86, (S)-2-(4-(5-chloro-2-(4-chloro-1H-1,2,3-triazol-1-yl)phenyl)-6-oxopyrimidin-1(6H)-yl)-N-(2-hydroxyethyl)-3-phenylpropanamide] gave a Ki of 5.5 µM.
`CC(C)CCNC(=O)[C@H](Cc1ccccc1)n1cnc(-c2cc(Cl)ccc2-n2cc(Cl)nn2)cc1=O` [Example 87, (S)-2-(4-(5-chloro-2-(4-chloro-1H-1,2,3-triazol-1-yl)phenyl)-6-oxopyrimidin-1(6H)-yl)-N-isopentyl-3-phenylpropanamide] showed a Ki of 0.21 µM.
In turn, `O=C([C@H](Cc1ccccc1)n1cnc(-c2cc(Cl)ccc2-n2cc(Cl)nn2)cc1=O)N1CCC1` [Example 88, (S)-3-(1-(azetidin-1-yl)-1-oxo-3-phenylpropan-2-yl)-6-(5-chloro-2-(4-chloro-1H-1,2,3-triazol-1-yl)phenyl)pyrimidin-4(3H)-one] returned an inhibitory constant (Ki) of 5.61 µM.
`CCCNC(=O)[C@H](Cc1ccccc1)n1cnc(-c2cc(Cl)ccc2-n2cc(Cl)nn2)cc1=O` [Example 89, (S)-2-(4-(5-chloro-2-(4-chloro-1H-1,2,3-triazol-1-yl)phenyl)-6-oxopyrimidin-1(6H)-yl)-3-phenyl-N-propylpropanamide] had a Ki of 1.94 µM.
In the case of `CN(C)CCCNC(=O)[C@H](Cc1ccccc1)n1cnc(-c2cc(Cl)ccc2-n2cc(Cl)nn2)cc1=O` [Example 90, (S)-2-(4-(5-chloro-2-(4-chloro-1H-1,2,3-triazol-1-yl)phenyl)-6-oxopyrimidin-1(6H)-yl)-N-(3-(dimethylamino)propyl)-3-phenylpropanamide], the inhibitory constant (Ki) worked out at 5.92 µM.

The values are drawn from patent publication US10336730B2, “Substituted glycine derived FXIA inhibitors” (BRISTOL-MYERS SQUIBB COMPANY, priority 2015, dated 2019).
